We go through two compounds from ChEMBL document CHEMBL3638466 (2015).

In this assay the target is Maternal embryonic leucine zipper kinase (Homo sapiens, UniProt Q14680). Kind of assay: Kinase Assay: MELK activity was determined in the presence or absence of compounds using fluorescein isothiocyanate-labeled (FITC-labeled) histone H3 peptide as a substrate. The extent of FITC-labeled histone H3 peptide phosphorylation was measured by immobilized metal ion affinity-based fluorescence polarization (IMAP) technology (Sportsman J R, et al., Assay Drug Dev. Technol. 2: 205-14, 2004) …. It is filed as single protein.
Chain of Maternal embryonic leucine zipper kinase (Q14680 whole entry): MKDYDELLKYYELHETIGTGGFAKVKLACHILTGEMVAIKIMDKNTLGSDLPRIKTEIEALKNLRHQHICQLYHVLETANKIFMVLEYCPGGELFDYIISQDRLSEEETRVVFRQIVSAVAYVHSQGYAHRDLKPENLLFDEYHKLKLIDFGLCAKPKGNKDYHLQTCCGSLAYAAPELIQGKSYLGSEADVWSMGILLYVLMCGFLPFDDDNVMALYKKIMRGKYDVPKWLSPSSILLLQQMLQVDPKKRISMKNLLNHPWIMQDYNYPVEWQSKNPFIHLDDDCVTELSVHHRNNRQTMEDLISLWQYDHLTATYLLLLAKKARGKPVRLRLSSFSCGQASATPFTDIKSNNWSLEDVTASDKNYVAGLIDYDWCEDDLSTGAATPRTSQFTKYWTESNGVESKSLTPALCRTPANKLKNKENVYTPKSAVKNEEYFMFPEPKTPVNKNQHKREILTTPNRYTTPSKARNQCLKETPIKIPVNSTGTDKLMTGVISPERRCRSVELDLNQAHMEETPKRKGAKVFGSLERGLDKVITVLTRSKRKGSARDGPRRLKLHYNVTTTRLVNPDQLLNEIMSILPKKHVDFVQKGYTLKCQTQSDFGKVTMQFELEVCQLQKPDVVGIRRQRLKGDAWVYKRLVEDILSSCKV

A word on the IC50: it is the concentration at which inhibition is half-maximal. A lower IC50 goes with greater potency. The compound `CC(=O)c1cnc2ccc(-c3cc(F)c(O)c(Cl)c3)nc2c1N[C@H]1CC[C@H](NC(=O)[C@@H]2CCCN2)CC1` displayed an IC50 of 2.4 nM. In the case of `CC(=O)c1cnc2ccc(-c3cc(Cl)c(O)c(Cl)c3)nc2c1NC[C@H]1CC[C@H](N(C)C)CC1` it was 0.6 nM.
